Source: US20200170254A1, “OXADIAZOLINE COMPOUND AND FORMULATION FOR CONTROLLING HARMFUL ORGANISMS” (Nippon Soda Co., Ltd., priority 2017, published 2020)

Assays:
Format in all cases: in vivo
Aphis gossypii = experiment: Efficacy test against Aphis gossypii (Test Example 2); conditions: 144 h, sprayed on cucumber plants with nymphs, 6 days after spraying, read-out: Insect mortality rate
Experimental: (§1) 5 parts of the compound of the present invention, 93.6 parts of dimethylformamide and 1.4 parts of polyoxyethylene alkyl aryl ether were mixed and dissolved to prepare Emulsion (I) including 5% of an active ingredient. For the control, Emulsion (II) was prepared by mixing and dissolving 93.6 parts of dimethylformamide and 1.4 parts of polyoxyethylene alkyl aryl ether.
(§2) An insect mortality rate was calculated by the numerical equation shown below.
(§3) Insect mortality rate (%)={(Number of dead insects)/(Number of sample insects)}×100
Cucumber seedlings were inoculated with nymphs of Aphis gossypii. Emulsion (I) was diluted with water so that the concentration of the compound of the present invention was 125 ppm. Subsequently, the aforementioned diluted liquid was sprayed on the cucumber plants on which the nymphs of Aphis gossypii were parasitic. The aforementioned cucumber plants were then placed in a thermostatic chamber with a temperature of 25° C. and humidity of 60%. Mortality was investigated 6 days after spraying was carried out, and the insect mortality rate of Aphis gossypii was calculated.

Mythimna separata = experiment: Efficacy test against Mythimna separata (Test Example 1); conditions: 144 h, corn leaves soaked, second-instar larvae, 6 days after inoculation, read-out: Insect mortality rate
Experimental: as §1, §2, §3
(Test Example 1) Efficacy Test against Mythimna separata Emulsion (I) was diluted with water so that the concentration of the compound of the present invention was 125 ppm. Corn leaves were soaked in the diluted liquid for 30 seconds. Subsequently, the corn leaves were put on Petri dishes, followed by inoculating 5 second-instar larvae of Mythimna separata. The Petri dishes were placed in a thermostatic chamber at a temperature of 25° C. and humidity of 60%. Mortality was investigated 6 days after inoculation, and the insect mortality rate was calculated.

Thrips palmi = experiment: Efficacy test against Thrips palmi, spray on cucumber seedlings (Test Example 3); conditions: 168 h, sprayed on cucumber seedlings, 7 days after spraying, read-out: controlling rate
Experimental: as §1
Cucumber seedlings were inoculated with 8 adults of Thrips palmi. Emulsion (I) was diluted with water so that the concentration of the compound of the present invention was 125 ppm. Subsequently, the aforementioned diluted liquid was sprayed on the cucumber seedlings, and then air dried. The number of the parasitic larvae was counted 7 days after spraying. The efficacy of the compounds was evaluated by the controlling rate described below.
Controlling rate (%)={1−(Nt)/(Nc)}×100
In which Nt: number of parasites at the legion spray-treated. • Nc: number of parasites at the legion non-treated (control).

## CN1OC2(N=C1N(C)C(C)(C)C)c1ccccc1CCCc1ccccc12 [Compound A-2]
Aphis gossypii
  mortality at 125 ppm: ≥ 80%

## CN1OC2(N=C1NC(C)(C)C)c1ccc(Cl)cc1OCCC2c1ccccc1 (stereo not drawn) [a-29]
Mythimna separata
  mortality at 125 ppm: ≥ 80%

## CC(C)(C)NC1=NC2(CCCc3ccccc32)ON1N (stereo not drawn) [a-21]
Aphis gossypii
  mortality at 125 ppm: ≥ 80%

## CCN(C1=NC2(ON1C)c1ccccc1COc1ccccc12)C(C)(C)C (stereo not drawn) [a-10]
Mythimna separata
  mortality at 125 ppm: ≥ 80%
Thrips palmi
  pest or weed control at 125 ppm: ≥ 80%
Aphis gossypii
  mortality at 125 ppm: ≥ 80%

## CN1OC2(Cc3ccccc3Oc3ccccc32)N=C1NC(C)(C)C (stereo not drawn) [a-22, N-(tert-butyl)-2′-methyl-2′H, 11H-spiro[dibenzo[b,f]oxepine-10,5′-[1,2,4]oxadiazol]-3′-amine]
Thrips palmi
  pest or weed control at 125 ppm: ≥ 80%

## CC1CCOc2cc(Cl)ccc2C12N=C(NC(C)(C)C)N(N)O2 (stereo not drawn) [a-30]
Mythimna separata
  mortality at 125 ppm: ≥ 80%

## CN1OC2(N=C1N(C)C(C)(C)C)c1ccccc1CCc1sc(Cl)cc12 (stereo not drawn) [a-37]
Thrips palmi
  pest or weed control at 125 ppm: ≥ 80%

## CN(C1=NC2(ON1N)c1ccccc1CCc1ccccc12)C(C)(C)C [a-35]
Thrips palmi
  pest or weed control at 125 ppm: ≥ 80%

## CN1OC2(N=C1N(C)C(C)(C)C)c1ccccc1CCc1sccc12 (stereo not drawn) [a-36]
Thrips palmi
  pest or weed control at 125 ppm: ≥ 80%

## CN1OC2(CC(c3ccccc3)c3ccccc32)N=C1NC(C)(C)C (stereo not drawn) [a-25]
Mythimna separata
  mortality at 125 ppm: ≥ 80%
Thrips palmi
  pest or weed control at 125 ppm: ≥ 80%
Aphis gossypii
  mortality at 125 ppm: ≥ 80%

## CN1OC2(N=C1NC(C)(C)C)c1ccccc1COc1ccccc12 (stereo not drawn) [a-11, N-(tert-butyl)-2′-methyl-2′H,6H-spiro[dibenzo[b,e]oxepine-11,5′-[1,2,4]oxadiazol]-3′-amine]
Mythimna separata
  mortality at 125 ppm: ≥ 80%
Thrips palmi
  pest or weed control at 125 ppm: ≥ 80%

## Cc1cc2c(s1)CCc1ccccc1C21N=C(NC(C)(C)C)N(C)O1 (stereo not drawn) [a-31]
Thrips palmi
  pest or weed control at 125 ppm: ≥ 80%

## CN1OC2(CCCOc3ccccc32)N=C1NC(C)(C)C (stereo not drawn) [a-26]
Aphis gossypii
  mortality at 125 ppm: ≥ 80%

## CCN(C1=NC2(ON1N)c1ccccc1C=Cc1ccccc12)C(C)(C)C [a-18]
Mythimna separata
  mortality at 125 ppm: ≥ 80%

## CN1OC2(N=C1N(C)C(C)(C)C)c1ccccc1COc1ccccc12 (stereo not drawn) [a-23]
Thrips palmi
  pest or weed control at 125 ppm: ≥ 80%

## CN1OC2(CC(C)(C)Oc3ccc(F)cc32)N=C1NC(C)(C)C (stereo not drawn) [a-20, N-(tert-butyl)-6-fluoro-2,2,2′-trimethyl-2′H-spiro [chromane-4,5′-[1,2,4]oxadiazol]-3′-amine]
Mythimna separata
  mortality at 125 ppm: ≥ 80%
Aphis gossypii
  mortality at 125 ppm: ≥ 80%

## CN1OC2(N=C1NC(C)(C)C)c1ccccc1C=Cc1ccccc12 [a-19]
Mythimna separata
  mortality at 125 ppm: ≥ 80%

## CCN(C1=NC2(ON1N)c1ccccc1CCc1sc(Cl)cc12)C(C)(C)C (stereo not drawn) [a-38]
Thrips palmi
  pest or weed control at 125 ppm: ≥ 80%

## CN1OC2(N=C1N(C)C(C)(C)C)c1ccccc1C=Cc1ccccc12 [a-17]
Thrips palmi
  pest or weed control at 125 ppm: ≥ 80%

## CC(C)(C)NC1=NC2(CCc3ccccc32)ON1N (stereo not drawn) [a-24]
Aphis gossypii
  mortality at 125 ppm: ≥ 80%

## CN1OC2(N=C1NC(C)(C)C)c1ccccc1CCCc1ccccc12 [Compound A-1]
Aphis gossypii
  mortality at 125 ppm: ≥ 80%
